In patent US20230355597A1, “COMPOUNDS, COMPOSITIONS, AND METHODS FOR THE TREATMENT AND PREVENTION OF AVIAN PATHOGENIC E. COLI (APEC)” (OHIO STATE INNOVATION FOUNDATION, priority 2018, published 2023):

Columns and labels:
[1] = test system: AI-2 activity of APEC O15; assay: AI-2 bioluminescence indicator assay (V. harveyi BB170); conditions: APEC O15, 100 µM
[2] = test system: AI-2 activity of APEC O78; assay: as above; conditions: APEC O78, 100 µM
AI-2 activity of APEC O8 = assay: as above; conditions: APEC O8, 100 µM
AI-2 activity of APEC O1 = assay: as above; conditions: APEC O1, 100 µM
[3] = test system: AI-2 activity of APEC O115; assay: as above; conditions: APEC O115, 100 µM
[4] = test system: AI-2 activity of APEC O18; assay: as above; conditions: APEC O18, 100 µM
AI-2 activity of APEC O2 = assay: as above; conditions: APEC O2, 100 µM
[5] = test system: QS and virulence associated genes of APEC O78; assay: qRT-PCR of QS-regulated and virulence factors genes; assay type: cell-based, avian pathogenic Escherichia coli (APEC); conditions: 100 µM, 10 h
Procedure: Quantitative real-time reverse transcription PCR (qRT-PCR). […] APEC O78 was grown in the presence of 100 µM of each compound in a 96-well plate at 37° C. for 10 h. APEC O78 culture treated with 1 µL of 100% DMSO was used as […]. Total RNA was extracted from duplicate wells for each compound (200 µL) using a miRNeasy Mini Kit (Qiagen). RNA quality and quantity was determined by nanodrop 2000 C spectrophotometer (Thermo scientific). Traces of DNA was removed using Genomic DNA removal mix (Qiagen). Approximately, 5 µg of purified RNA was used to synthesize cDNA using the Qiagen RT^2 First Strand Kit (Qiagen). The qRT-PCR was performed using SensiMix™ SYBER® Hi-Rox qPCR Master Mix (Bioline) according to manufacturer instructions in a realplex^2 mastercycler (Eppendorf) with 55° C. annealing temperature. Gene-specific primers were designed using PrimerQuest Tool and obtained from integrated DNA technologies (IDT). The data were normalized to the house-keeping gene, glyceraldehyde-3-phosphate dehydrogenase (GAPDH). The relative fold change was calculated using the ΔΔCt method. Three independent experiments were conducted.

[6] = test system: AI-2 activity of APEC O109; assay: AI-2 bioluminescence indicator assay (V. harveyi BB170); conditions: APEC O109, 100 µM
Caco-2 cells = assay: LDH assay of AI-2 inhibitors; conditions: Caco-2, 100 µM, 24 h
[7] = test system: AI-2 activity of APEC O35; assay: AI-2 bioluminescence indicator assay (V. harveyi BB170); conditions: APEC O35, 100 µM
Rif^r APEC O78 [8] = assay: In vivo screening of quorum sensing inhibitors in APEC infected broiler chickens
Rif^r APEC O78 [9] = assay: Wax moth (Galleria mellonella) larva infection model (AI-2 inhibitors)
APEC O78 in HD-11 cells = assay: Intracellular survival assay (AI-2 inhibitors); assay type: cell-based, avian pathogenic Escherichia coli (APEC); conditions: O78, HD-11, 100 µM, 6 h
Description: Intracellular survival assay.

APEC O2 in THP-1 cells = assay: Intracellular survival assay (AI-2 inhibitors); conditions: O2, THP-1, 100 µM, 6 h
APEC O2 in HD-11 cells = assay: Intracellular survival assay (AI-2 inhibitors); conditions: O2, HD-11, 100 µM, 6 h

Structure (SMILES)	Inhibition % of AI-2 activity [1]	Inhibition % of AI-2 activity [2]	Inhibition % of AI-2 activity (AI-2 activity of APEC O8)	Inhibition % of AI-2 activity (AI-2 activity of APEC O1)	Inhibition % of AI-2 activity [3]	Inhibition % of AI-2 activity [4]	Inhibition % of AI-2 activity (AI-2 activity of APEC O2)	expression of cheW [5]	expression of csrA [5]	Inhibition % of AI-2 activity [6]	toxicity (LDH) (Caco-2 cells)	Inhibition % of AI-2 activity [7]	also measured
COC(=S)NN=Cc1cc(C)ccc1O [C4, methyl N′-{2-hydroxy-5-methylbenzylidene)hydrazonethiocarbonate]	46%	75%	0%	63%	58%	54%	76%	down-regulated	down-regulated	67%	12%	60%	expression of iucD [5]: down-regulated; expression of pfs [5]: up-regulated
CCc1ccccc1Nc1nc(-c2c(C)nc3ccccn23)cs1 [C8, N-{2-ethyphenyl)-4-(2-methylimidazo[1,2-a]pyridin-3-yl)-1.3-thiazol-2-amine]	25%	98%	18%	41%	44%	54%	94%				2%	57%	reduction in chicken mortality (Rif^r APEC O78 [8]; DMSO control mortality normalized to 100%): 50%; average lesion score reduction (Rif^r APEC O78 [8]; liver, heart, lung and airsac, vs DMSO): 1.0-2.0; reduction of bacterial load in internal organs (Rif^r APEC O78 [8]; liver, lung, heart, and kidney, vs DMSO control, 'up to'): 2.2-3.1 log CFU/g; Mortality rate (%) (Rif^r APEC O78 [8]; oral gavage once a day, day 4 to day 8, DMSO control 66.7%): 33.3%; Reduction in APEC lesions severity, Air-sacs (%) (Rif^r APEC O78 [8]; vs DMSO treated control): 66.7%; Reduction in APEC lesions severity, Heart (%) (Rif^r APEC O78 [8]; vs DMSO treated control): 75%; Reduction in APEC lesions severity, Liver (%) (Rif^r APEC O78 [8]; vs DMSO treated control): 75%; Reduction in APEC lesions severity, Lung (%) (Rif^r APEC O78 [8]; vs DMSO treated control): 83.3%; larval death (Rif^r APEC O78 [9]; 48 h post treatment): no larval death; clearance of APEC in live larvae (Rif^r APEC O78 [9]; 72 h): 100%; expression of fliP [5]: down-regulated
Fc1ccc(CN2CCCN(Cc3nc(-c4ccc(C(F)(F)F)cc4)no3)CC2)cc1 [C9, 1-(4-flurobenzyl)-4-((3-[4-(trifluoromethyl)phenyl]-1,2,4-oxadiazol-5-yl]methyl)-1,4-diazapane]	0%	79%	20%	19%	44%	14%	51%	down-regulated	down-regulated	66%		36%	clearance of intracellular APEC (APEC O78 in HD-11 cells): 100%; reduction of intracellular survival (APEC O78 in HD-11 cells; vs DMSO): 4 logs; clearance of intracellular APEC (APEC O2 in THP-1 cells): 100%; reduction of intracellular survival (APEC O2 in THP-1 cells; vs DMSO): 4 logs; clearance of intracellular APEC (APEC O2 in HD-11 cells): 100%; reduction of intracellular survival (APEC O2 in HD-11 cells; vs DMSO): 3.3 logs; expression of murD [5]: down-regulated
